Results published in the supplement of paper PMC10307832.

Columns and labels:
Assay in all cases: relative viability (nuclei count vs DMSO), 5 days (fraction); higher = more cells survive
VX-702 + Phenformin = compound: NC(=O)c1ccc(N(C(N)=O)c2c(F)cccc2F)nc1-c1ccc(F)cc1F [VX-702] + N=C(N)NC(=N)NCCc1ccccc1 [Phenformin] (partner 250 µM)
In short: (§1)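 The day after seeding in 1536-well plates, lung cancer cell lines were treated by pin tool with a single drug, or with a fixed anchor-drug dose together with five library-drug doses (not always all listed) in √10 steps. After 5 days, a combined fix-and-stain solution (final 0.05% Triton X-100, 1% formaldehyde, 1 ug/ml Hoechst) was added. Nuclei counted on 4× images gave relative viability as treated counts over vehicle counts, reported as the median of duplicate plates.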

VX-702 + Foretinib = compound: NC(=O)c1ccc(N(C(N)=O)c2c(F)cccc2F)nc1-c1ccc(F)cc1F [VX-702] + COc1cc2c(Oc3ccc(NC(=O)C4(C(=O)Nc5ccc(F)cc5)CC4)cc3F)ccnc2cc1OCCCN1CCOCC1 [Foretinib] (partner 0.25 µM)
In short: as §1

Dabrafenib + Alpelisib = compound: CC(C)(C)c1nc(-c2cccc(NS(=O)(=O)c3c(F)cccc3F)c2F)c(-c2ccnc(N)n2)s1 [Dabrafenib] + Cc1nc(NC(=O)N2CCC[C@H]2C(N)=O)sc1-c1ccnc(C(C)(C)C(F)(F)F)c1 [Alpelisib] (partner 2 µM)
In short: as §1

Dabrafenib + Dasatinib = compound: CC(C)(C)c1nc(-c2cccc(NS(=O)(=O)c3c(F)cccc3F)c2F)c(-c2ccnc(N)n2)s1 [Dabrafenib] + Cc1nc(Nc2ncc(C(=O)Nc3c(C)cccc3Cl)s2)cc(N2CCN(CCO)CC2)n1 [Dasatinib] (partner 0.075 µM)
In short: as §1

Cell Line | relative viability (VX-702 + Phenformin; first compound 0.02 µM) | relative viability (VX-702 + Phenformin; first compound 0.2 µM) | relative viability (VX-702 + Phenformin; first compound 0.6325 µM) | relative viability (VX-702 + Phenformin; first compound 2 µM) | relative viability (VX-702 + Foretinib; first compound 0.02 µM) | relative viability (VX-702 + Foretinib; first compound 0.2 µM) | relative viability (VX-702 + Foretinib; first compound 0.6325 µM) | relative viability (VX-702 + Foretinib; first compound 2 µM) | relative viability (Dabrafenib + Alpelisib; first compound 0.009487 µM) | relative viability (Dabrafenib + Alpelisib; first compound 0.03 µM) | relative viability (Dabrafenib + Alpelisib; first compound 0.09487 µM) | relative viability (Dabrafenib + Alpelisib; first compound 0.3 µM) | relative viability (Dabrafenib + Dasatinib; first compound 0.009487 µM) | relative viability (Dabrafenib + Dasatinib; first compound 0.03 µM) | relative viability (Dabrafenib + Dasatinib; first compound 0.09487 µM) | relative viability (Dabrafenib + Dasatinib; first compound 0.3 µM) | relative viability (Dabrafenib + Alpelisib; first compound 0.003 µM) | relative viability (Dabrafenib + Dasatinib; first compound 0.003 µM)
A-427 | 0.306 | 0.303 | 0.395 | 0.28 | 1.06 | 1.03 | 0.97 | 1.08 | 1.18 | 0.885 | 0.932 | 1.1 | 0.77 | 0.594 | 0.51 | 0.627 |  | 
NCI-H3122 | 0.409 | 0.388 | 0.44 | 0.424 | 0.964 | 0.946 | 1.01 | 0.923 | 0.774 | 0.897 | 0.912 | 0.89 | 0.767 | 0.908 | 0.793 | 0.75 | 0.877 | 0.773
PC-14 | 0.618 | 0.547 | 0.689 | 0.483 | 1.02 | 0.956 | 0.986 | 1.08 | 0.946 | 0.938 | 0.892 | 0.833 | 0.297 | 0.271 | 0.251 | 0.281 | 0.901 | 0.276
NCI-H1915 | 0.366 | 0.374 | 0.363 | 0.384 | 1.1 | 1.06 | 1.06 | 1.17 | 1.05 | 0.979 | 0.897 | 0.984 | 0.318 | 0.386 | 0.296 | 0.345 | 1.03 | 0.316
NCI-H1793 | 0.284 | 0.331 | 0.415 | 0.358 | 0.671 | 0.705 | 0.703 | 0.719 | 0.675 | 0.615 | 0.73 | 0.64 | 0.503 |  |  | 0.399 | 0.676 | 
NCI-H1650 | 0.542 | 0.625 | 0.411 | 0.468 | 1.04 | 1.17 | 1.02 | 1.29 |  |  |  |  | 0.376 | 0.425 | 0.327 | 0.378 |  | 0.263
CAL-12T | 0.699 | 0.55 | 0.609 | 0.632 | 1.05 | 1.09 | 1.01 | 1.28 | 1.33 | 1.27 | 1.14 | 1.45 | 0.434 | 0.476 | 0.325 | 0.42 | 1.38 | 0.493
HCC-15 | 0.536 | 0.441 | 0.525 | 0.557 | 0.952 | 0.915 | 0.99 | 0.793 | 0.971 | 0.909 | 0.912 | 0.893 | 0.665 | 0.775 | 0.651 | 0.754 | 0.831 | 0.597
LC-2-ad | 0.574 | 0.647 | 0.551 | 0.612 | 0.765 | 0.958 | 0.838 | 0.99 | 0.824 | 0.891 | 0.835 | 0.882 | 0.802 | 0.518 | 0.512 | 0.677 | 0.907 | 
NCI-H520 | 0.67 | 0.648 | 0.525 | 0.535 | 0.876 | 0.73 | 0.607 | 0.744 | 0.881 | 0.708 | 0.881 | 0.914 | 0.24 | 0.199 | 0.179 | 0.177 | 0.934 | 0.223
LOU-NH91 | 0.796 | 0.819 | 0.807 | 0.504 | 0.94 | 0.973 | 0.994 | 0.704 | 0.803 | 0.652 | 0.7 | 0.743 | 0.573 | 0.582 | 0.49 | 0.568 |  | 0.41
NCI-H1703 |  |  |  |  | 0.32 | 0.367 | 0.325 | 0.395 | 0.309 | 0.291 | 0.379 | 0.362 |  |  |  |  | 0.356 | 
Calu-6 |  |  |  |  | 0.975 | 0.902 | 0.896 | 0.971 | 0.896 | 0.92 | 0.723 | 0.593 |  |  |  |  | 0.964 | 
NCI-H1355 | 0.53 | 0.445 | 0.482 | 0.494 | 0.931 | 1.01 | 0.923 | 1.01 | 0.935 | 0.608 |  | 0.809 | 0.692 | 0.749 | 0.651 | 0.703 |  | 
NCI-H1623 | 0.583 | 0.469 | 0.917 | 0.535 | 0.819 | 0.81 | 0.835 | 0.744 |  |  |  |  | 0.521 | 0.585 | 0.611 | 0.619 |  | 
NCI-H1792 | 0.314 | 0.303 | 0.45 | 0.237 |  |  |  |  | 0.698 | 0.646 | 0.598 | 0.663 | 0.839 | 0.892 | 0.857 | 0.905 |  | 
ChaGo-K-1 | 0.528 | 0.462 | 0.506 | 0.499 | 0.867 | 0.892 | 0.893 | 0.901 |  |  |  |  | 0.487 | 0.56 | 0.586 | 0.559 |  | 0.477
NCI-H522 | 0.584 | 0.691 | 0.611 | 0.672 |  |  |  |  |  |  |  |  | 0.862 | 0.671 | 0.83 | 0.899 |  | 
NCI-H1299 |  |  |  |  | 1.15 | 1.14 | 1.15 | 1.22 | 0.982 | 1.03 | 0.87 | 0.757 |  |  |  |  | 1.14 | 
IA-LM |  |  |  |  | 1.21 | 1.1 | 1.2 | 1.15 | 0.607 | 0.72 | 0.242 | 0.0678 |  |  |  |  | 0.613 | 
EBC-1 |  |  |  |  | 0.107 | 0.111 | 0.0889 | 0.0899 | 0.649 | 0.563 | 0.264 | 0.24 |  |  |  |  | 0.71 | 
NCI-H2342 | 0.594 | 0.686 | 0.58 | 0.719 | 0.887 | 1.07 | 1.02 | 1.14 |  |  |  |  | 0.309 | 0.344 | 0.323 | 0.334 |  | 0.288
A549 | 0.128 | 0.19 | 0.154 | 0.137 | 1.02 | 0.975 | 0.92 | 1.07 | 0.949 | 0.83 | 0.754 | 0.705 |  |  |  |  | 0.641 | 
